Assay results from the supplement of paper PMC10307832.

What was measured:
Assay in all cases: relative viability (nuclei count vs DMSO), 5 days (fraction); higher = more cells survive
TPCA-1 + Crizotinib = compound: C1=CC(=CC=C1C2=CC(=C(S2)NC(=O)N)C(=O)N)F [TPCA-1] + C[C@@H](Oc1cc(-c2cnn(C3CCNCC3)c2)cnc1N)c1c(Cl)ccc(F)c1Cl [Crizotinib] (partner 1 µM)
Procedure, shortened: (§1)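 Relative viability is defined as nuclei in treated wells over nuclei in vehicle wells. Duplicate plates were run and medians reported. Lung cancer cell lines in 1536-well plates were dosed by pin tool one day after seeding, with one drug or with a fixed anchor-drug dose plus five library-drug doses (not always all listed) in √10 steps, and nuclei were counted after 5 days.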

TPCA-1 + Decitabine = compound: C1=CC(=CC=C1C2=CC(=C(S2)NC(=O)N)C(=O)N)F [TPCA-1] + Nc1ncn([C@H]2C[C@H](O)[C@@H](CO)O2)c(=O)n1 [Decitabine] (partner 2 µM)
Procedure, shortened: as §1

TPCA-1 + Vorinostat = compound: C1=CC(=CC=C1C2=CC(=C(S2)NC(=O)N)C(=O)N)F [TPCA-1] + O=C(CCCCCCC(=O)Nc1ccccc1)NO [Vorinostat] (partner 1 µM)
Procedure, shortened: as §1

[1] = compound: C[C@]12O[C@H](C[C@]1(O)CO)n1c3ccccc3c3c4c(c5c6ccccc6n2c5c31)CNC4=O [Lestaurtinib] + O=C(CCCCCCC(=O)Nc1ccccc1)NO [Vorinostat] (partner 1 µM)
Procedure, shortened: as §1

Row | Cell Line | relative viability (TPCA-1 + Crizotinib; first compound 0.04 µM) | relative viability (TPCA-1 + Crizotinib; first compound 0.1265 µM) | relative viability (TPCA-1 + Crizotinib; first compound 0.4 µM) | relative viability (TPCA-1 + Crizotinib; first compound 1.265 µM) | relative viability (TPCA-1 + Crizotinib; first compound 4 µM) | relative viability (TPCA-1 + Decitabine; first compound 0.04 µM) | relative viability (TPCA-1 + Decitabine; first compound 0.1265 µM) | relative viability (TPCA-1 + Decitabine; first compound 0.4 µM) | relative viability (TPCA-1 + Decitabine; first compound 1.265 µM) | relative viability (TPCA-1 + Decitabine; first compound 4 µM) | relative viability (TPCA-1 + Vorinostat; first compound 0.04 µM) | relative viability (TPCA-1 + Vorinostat; first compound 0.1265 µM) | relative viability (TPCA-1 + Vorinostat; first compound 0.4 µM) | relative viability (TPCA-1 + Vorinostat; first compound 1.265 µM) | relative viability (TPCA-1 + Vorinostat; first compound 4 µM) | relative viability ([1]; first compound 0.005 µM) | relative viability ([1]; first compound 0.01581 µM) | relative viability ([1]; first compound 0.05 µM) | relative viability ([1]; first compound 0.1581 µM) | relative viability ([1]; first compound 0.5 µM)
1 | NCI-H838 | 0.837 | 0.752 | 0.806 | 0.698 | 0.471 | 0.466 | 0.442 | 0.532 | 0.44 | 0.44 | 0.752 | 0.64 | 0.676 | 0.648 | 0.363 | 0.792 | 0.724 | 0.681 | 0.333 | 0.172
2 | LK-2 | 0.22 | 0.229 | 0.289 | 0.206 | 0.313 | 0.347 | 0.21 | 0.331 | 0.27 | 0.175 | 0.343 | 0.161 | 0.287 | 0.267 | 0.237 | 0.237 | 0.353 | 0.198 | 0.193 | 0.154
3 | NCI-H1650 | 1.18 | 0.92 | 1.04 | 1.09 | 0.891 | 0.424 | 0.42 | 0.433 | 0.382 | 0.397 | 0.717 | 0.575 | 0.584 | 0.675 | 0.498 | 0.667 | 0.528 | 0.784 | 0.54 | 0.491
4 | NCI-H322M | 0.807 | 0.924 | 0.873 | 0.841 | 0.728 | 0.729 | 0.638 | 0.74 | 0.682 | 0.486 | 0.976 | 0.89 | 0.958 | 0.864 | 0.431 | 0.764 | 0.935 | – | 0.701 | 0.461
5 | NCI-H661 | 0.968 | 0.889 | 1.05 | 0.988 | 0.825 | 0.533 | 0.58 | 0.597 | 0.602 | 0.436 | 0.739 | 0.759 | 0.806 | 0.754 | 0.483 | 0.873 | 0.669 | 0.525 | 0.4 | 0.339
6 | NCI-H520 | 0.882 | 0.737 | 0.795 | 0.566 | 0.544 | 0.522 | 0.35 | 0.573 | 0.516 | 0.331 | 0.72 | 0.636 | 0.782 | 0.605 | 0.497 | 0.68 | 0.675 | 0.632 | 0.371 | 0.211
7 | NCI-H441 | 0.894 | 0.646 | 0.618 | 0.452 | 0.379 | 0.252 | 0.247 | 0.229 | 0.48 | 0.239 | 0.776 | 0.636 | 0.717 | 0.577 | 0.476 | 0.641 | 0.837 | 0.62 | 0.573 | 0.389
